Among the test systems are A498; ACHN; HCT-15; HL-60; HOP-62; HT-29; MDA-MB-435; NCI-H522; NCI/ADR-RES; OVCAR-5; RPMI-8226; SF-539; SK-MEL-2; SK-MEL-5; SN12C; TK-10; U-251; UACC-257; UACC-62; UO-31.
Holding throughout (experiment): NCI anticancer screen, dose series, 48 h

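Grown in 96-well plates, cells were treated for 48 hours with each compound at five concentrations. Insufficient inhibition: endpoint recorded as highest concentration tested. GI50 = concentration required for 50% inhibition of growth.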 Active and inactive are the calls of the source. Rule as the data show it: active = GI50 up to about 1.1 µM and inactive = higher. A value given as a limit tells only on which side of the number the result lay.

Regarding `CCON=C1C(C)(C)C(C)(C)C(C)(C)C1(C)C`, the GI50 with A498 is > 100 µM (inactive); in the test with ACHN, > 100 µM (inactive); in the test with HCT-15, more than 100 µM; in the test with HL-60, > 100 µM (inactive); in the test on HOP-62, > 100 µM (inactive); with HT-29 it was > 100 µM (inactive). The GI50 in the test on MDA-MB-435, with NCI-H522, in the test on NCI/ADR-RES, with OVCAR-5, with RPMI-8226 and with SF-539 was > 100 µM (inactive) in each case. The GI50 in the test on SK-MEL-2, with SK-MEL-5, in the test with SN12C, with TK-10, in the test with U-251 and with UACC-257 was > 100 µM (inactive) throughout. Moreover, the GI50 with UACC-62 was > 100 µM (inactive).
`CCOC(=O)C(=CNC(=S)Nc1c(CC)cccc1CC)C(=O)OCC`: the GI50 in the test on A498, with ACHN, in the test with HL-60, with HOP-62, in the test with HT-29 and in the test with MDA-MB-435 was > 100 µM (inactive) in each case. Besides, the GI50 in the test with NCI-H522, in the test with NCI/ADR-RES, in the test with OVCAR-5, in the test on RPMI-8226, in the test on SF-539 and in the test on SK-MEL-2 was > 100 µM (inactive) in each case. In addition, the GI50 in the test on SK-MEL-5, in the test on SN12C, with TK-10, in the test with U-251, in the test on UACC-257 and in the test with UACC-62 was > 100 µM (inactive) throughout. The GI50 in the test with UO-31 was > 100 µM (inactive).
For `C(CCCCc1nnc(N2CCCCC2)o1)CCCc1nnc(N2CCCCC2)o1`, the GI50 in the test on A498 is > 100 µM (inactive); in the test on ACHN, > 100 µM (inactive); in the test with HCT-15 it was more than 100 µM; in the test with HL-60, > 100 µM (inactive); in the test on HOP-62, > 100 µM (inactive); with HT-29, > 100 µM (inactive). The GI50 in the test with MDA-MB-435, with NCI-H522, in the test on NCI/ADR-RES, with OVCAR-5, with SF-539 and in the test on SK-MEL-2 was > 100 µM (inactive) in each case. For the same compound, the GI50 in the test with SK-MEL-5, in the test with SN12C, in the test on TK-10, with U-251, in the test with UACC-257 and with UO-31 was > 100 µM (inactive) in each case.
As for `C(=N\NC1=NCCN1)/c1ccc(-c2cn3cc(/C=N/NC4=NCCN4)ccc3n2)cc1`, the GI50 was 40.3 µM (inactive) in the test on A498; 34.6 µM (inactive) in the test on ACHN; more than 68.4 µM in the test with HCT-15; 4.48 µM (inactive) in the test on HL-60; 11.9 µM (inactive) in the test on HT-29; 24.5 µM (inactive) in the test with MDA-MB-435. Further, the GI50 in the test with NCI-H522 was 10.9 µM (inactive); in the test with NCI/ADR-RES it was > 66.2 µM (inactive); in the test on OVCAR-5, 64.3 µM (inactive); in the test on RPMI-8226, 16.6 µM (inactive); in the test with SF-539 it was > 100 µM (inactive); in the test on SK-MEL-2, > 100 µM (inactive). In addition, the GI50 in the test with SK-MEL-5 was > 100 µM (inactive); in the test with SN12C it was > 36.9 µM (inactive); in the test with TK-10, 26.6 µM (inactive); in the test on U-251 it was 15.5 µM (inactive); in the test with UACC-257, 30.3 µM (inactive); with UACC-62, 40.6 µM (inactive). Also, the GI50 in the test on UO-31 is 46 µM (inactive).
Take `NCC1OC(OC2C(N)CC(N)C(O)C2OC2OC(CO)C(O)C2O)C(N)C(O)C1O` (stereo unspecified): the GI50 with A498 was > 50 µM (inactive); with ACHN, > 50 µM (inactive); with HCT-15, more than 100 µM; in the test with HL-60 it was > 100 µM (inactive); in the test with HOP-62, > 50 µM (inactive); with HT-29, > 50 µM (inactive). In addition, the GI50 in the test on MDA-MB-435 is > 100 µM (inactive); in the test on NCI-H522 it was > 100 µM (inactive); in the test on NCI/ADR-RES it was > 100 µM (inactive); in the test on OVCAR-5, > 100 µM (inactive); with SF-539, > 100 µM (inactive); in the test on SK-MEL-2 it was > 50 µM (inactive). For the same compound, the GI50 in the test with SK-MEL-5 is > 50 µM (inactive); in the test with SN12C, > 50 µM (inactive); in the test with TK-10 it was > 50 µM (inactive); in the test with U-251, > 100 µM (inactive); with UACC-257 it was > 50 µM (inactive); in the test on UACC-62, > 100 µM (inactive). Moreover, the GI50 in the test on UO-31 is > 100 µM (inactive).
As to `O=C(CCCCCCCCC(=O)NN1C(=O)/C(=C\c2ccc(O)c(O)c2)SC1c1ccc(Cl)cc1)NN1C(=O)/C(=C\c2ccc(O)c(O)c2)SC1c1ccc(Cl)cc1` (stereo unspecified), the GI50 with A498 is 19.8 µM (inactive); in the test with ACHN it was 18.3 µM (inactive); in the test on HCT-15, 13.4 µM; in the test with HOP-62, 10.3 µM (inactive); with HT-29, 57.7 µM (inactive); in the test on MDA-MB-435, 66.8 µM (inactive). In addition, the GI50 in the test with NCI-H522 was 2.87 µM (inactive); in the test on NCI/ADR-RES, 28.8 µM (inactive); in the test with OVCAR-5, > 86.3 µM (inactive); in the test with RPMI-8226, 2.72 µM (inactive); in the test on SF-539, 13.4 µM (inactive); in the test with SK-MEL-2 it was 20.4 µM (inactive). For the same compound, the GI50 in the test with SK-MEL-5 was 30.6 µM (inactive); with SN12C, 41.7 µM (inactive); in the test on TK-10 it was 25.8 µM (inactive); with U-251 it was 15.7 µM (inactive); in the test with UACC-257, 34 µM (inactive); in the test on UACC-62, 14.2 µM (inactive). For the same compound, the GI50 with UO-31 was 5.35 µM (inactive).
With `COC(=O)[C@@H](Cc1ccccc1)NNC(=O)OC(C)(C)C`, the GI50 in the test on A498 is > 100 µM (inactive); in the test with ACHN, > 100 µM (inactive); in the test on HCT-15, more than 100 µM; with HL-60, > 100 µM (inactive); with HOP-62, > 100 µM (inactive); in the test on MDA-MB-435, > 100 µM (inactive). The GI50 in the test with NCI-H522, with NCI/ADR-RES, with OVCAR-5, in the test on RPMI-8226, with SF-539 and in the test with SK-MEL-5 was > 100 µM (inactive) in each case. Also, the GI50 with SN12C, in the test on TK-10, with U-251, with UACC-257 and with UACC-62 was > 100 µM (inactive) each time.
`COc1cc(C2SCC(=O)N2NC(=O)c2ccc(NC(C)=O)cc2OC)ccc1O` (stereo unspecified): the GI50 was 7.59 µM (inactive) in the test on A498; 63 µM (inactive) in the test with ACHN; more than 100 µM in the test on HCT-15; 54.2 µM (inactive) with HL-60; 4.12 µM (inactive) in the test on HOP-62; > 100 µM (inactive) in the test on HT-29. Besides, the GI50 in the test with MDA-MB-435 was > 100 µM (inactive); with NCI-H522, > 100 µM (inactive); in the test on NCI/ADR-RES, 96.4 µM (inactive); in the test with OVCAR-5, 23.1 µM (inactive); with RPMI-8226, 0.883 µM (active); in the test on SF-539 it was 0.729 µM (active). Moreover, the GI50 in the test with SK-MEL-2 was 22.2 µM (inactive); in the test with SN12C, 36.5 µM (inactive); with UACC-62, > 100 µM (inactive); in the test with UO-31 it was > 100 µM (inactive).
In the case of `COc1ccc(-c2[nH]c(=O)n(C3OC(CO)C(O)C(O)C3O)c(=O)c2C#N)cc1` (stereo unspecified), the GI50 in the test with A498 is > 100 µM (inactive); with ACHN, > 100 µM (inactive); in the test with HCT-15, more than 100 µM; in the test on HOP-62, > 100 µM (inactive); in the test with HT-29, > 100 µM (inactive); with MDA-MB-435, > 100 µM (inactive). Moreover, the GI50 with NCI-H522, with NCI/ADR-RES, in the test with OVCAR-5, with RPMI-8226, in the test with SF-539 and in the test on SK-MEL-2 was > 100 µM (inactive) each time. Besides, the GI50 in the test with SK-MEL-5, in the test on SN12C, in the test on TK-10, in the test with U-251, in the test on UACC-257 and with UACC-62 was > 100 µM (inactive) throughout. The GI50 in the test on UO-31 is > 100 µM (inactive).
As to `c1ccc(C/C(=N\Nc2nc3ccccc3[nH]2)c2ccccn2)cc1`, the GI50 with A498 is 0.217 µM (active); in the test on ACHN it was 0.0131 µM (active); in the test on HCT-15, less than 0.01 µM; with HOP-62 it was < 0.0232 µM (active); with HT-29 it was < 0.01 µM (active); with MDA-MB-435, 0.385 µM (active). Besides, the GI50 with NCI-H522 was < 0.01 µM (active); in the test on NCI/ADR-RES, < 0.0164 µM (active); in the test with RPMI-8226, < 0.01 µM (active); in the test with SF-539, 0.196 µM (active); with SK-MEL-2, 2.89 µM (inactive); with SK-MEL-5, 0.0408 µM (active). Besides, the GI50 was 0.0295 µM (active) in the test on SN12C; < 0.0221 µM (active) with U-251; < 0.0107 µM (active) with UACC-257; 0.147 µM (active) in the test with UACC-62; 0.0261 µM (active) in the test on UO-31.
Consider `FC(F)(F)c1cc(N(C2c3ccccc3C=Cc3ccccc32)P(Cl)Cl)cc(C(F)(F)F)c1`, for which the GI50 in the test on A498 is 26.9 µM (inactive); in the test with ACHN it was 17.5 µM (inactive); in the test with HCT-15, 5.78 µM; in the test with HL-60, 20 µM (inactive); with HOP-62 it was 17.6 µM (inactive); in the test on HT-29, 24.5 µM (inactive). Further, the GI50 in the test with MDA-MB-435 was 21.8 µM (inactive); with NCI-H522 it was 14.1 µM (inactive); with NCI/ADR-RES, 3.62 µM (inactive); in the test on OVCAR-5 it was 20 µM (inactive); with RPMI-8226, 18 µM (inactive); in the test on SF-539, 26.7 µM (inactive). Also, the GI50 was 18.7 µM (inactive) in the test on SK-MEL-2; 18.1 µM (inactive) in the test with SK-MEL-5; 16.9 µM (inactive) in the test with SN12C; 33 µM (inactive) in the test on TK-10; 17.8 µM (inactive) in the test on U-251; 18.3 µM (inactive) with UACC-257. Moreover, the GI50 in the test with UO-31 was 17.6 µM (inactive).

The values above are taken from ChEMBL document CHEMBL1201862, “PubChem BioAssay data set” (2004).
